Test results published in PubChem BioAssay (NCI).
Where “and” joins values, the source holds several entries; their conditions need not be identical. Equal entries are not always repeated.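 All cell lines were grown in 96-well plates and treated with compound for 48 hours. Here, GI50 denotes the concentration required for 50% inhibition of growth. TGI is the concentration that stops growth completely.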

Legend:
[1] = tested on: P388 leukemia; experiment: NCI tumour cell line growth inhibition, 48 h
[2] = tested on: SN12K1 renal; experiment: NCI tumour cell line growth inhibition, 48 h

Compound	TGI [1] [nM]	TGI [2]	GI50 [1]	GI50 [2] [nM]
O=C1N[C@H]2[C@H](O)[C@H](O)[C@@H](O)[C@H](O)[C@@H]2c2cc3c(c(O)c21)OCO3	164	0.36 µM		
C[C@@](O)(/C=C/[C@H]1CC=CC(=O)O1)[C@@H](C[C@@H](O)\C=C/C=C\C=C\CO)OP(=O)(O)O		30.7 µM and 19.3 µM	1410 nM and 567 nM	2690
